System: immunoglobulin titers (IgG and IgM) specific for M. tuberculosis
Set-up: species or system rabbits
Details: rabbit, in vivo, sc

Question: What does the source list for “FNNFTVSFWLRVPKVSASHLE [FNN-21, reference compound]”?
Answer: immunoglobulin titer, average absorbance, Day 1: 0.14 AU 405 nm; immunoglobulin titer, average absorbance, Day 3: 0.15 AU 405 nm; immunoglobulin titer, average absorbance, Day 5: 0.13 AU 405 nm; immunoglobulin titer, average absorbance, Day 7: 0.16 AU 405 nm; immunoglobulin titer, average absorbance, Day 10: 0.25 AU 405 nm; immunoglobulin titer, average absorbance, Day 14: 0.35 AU 405 nm

Source: US7608589B2, “Peptidyl diacylglycerides” (priority 2005, dated 2009)
